Earlier results in patent US7947285B2, “Methods for preventing post endoscopic retrograde cholangiopancreatography pancreatitis” (priority 2003, dated 2011).

Experiments:
post-ERCP pancreatitis [1] = conditions: high-risk patients; two large controlled trials; cited from earlier work
post-ERCP pancreatitis [2] = conditions: cited from earlier work
post-ERCP pancreatitis [3] = conditions: patients without pancreas divisum; retrospective review; cited from earlier work
post-ERCP pancreatitis [4] = conditions: prophylaxis; meta-analysis of 28 clinical trials; cited from earlier work

In the case of `C[C@@H](O)[C@@H]1NC(=O)[C@H](CCCCN)NC(=O)[C@@H](Cc2c[nH]c3ccccc23)NC(=O)[C@H](Cc2ccccc2)NC(=O)[C@@H](NC(=O)[C@H](N)Cc2ccccc2)CSSC[C@@H](C(=O)N[C@H](CO)[C@@H](C)O)NC1=O` [octreotide], the “preventing post-ERCP pancreatitis” value (post-ERCP pancreatitis [1]) is given as “ineffective”, the “effect on clinical course of post-ERCP pancreatitis” value (post-ERCP pancreatitis [2]; human, in vivo) is given as “has not been show to alter the clinical course” and the effect on hyperamylasemia (post-ERCP pancreatitis [2]; post-ERCP) is given as “reduces hyperamylasemia”.
In the case of secretin, the “incidence of post-ERCP pancreatitis” value (post-ERCP pancreatitis [3]) is given as “might decrease the incidence”.
In the case of `CCOC(=O)c1ccc(OC(=O)CCCCCNC(=N)N)cc1` [gabexate], the “reducing the frequency of post-ERCP pancreatitis” value (post-ERCP pancreatitis [4]) is listed as “effective” and the “preventing post-ERCP pancreatitis” value (post-ERCP pancreatitis [1]) is listed as “ineffective”.
